Results published in patent publication US7538241B2, “Hsp90 family protein inhibitors” (Kyowa Hakko Kogyo Co., Ltd., priority 2003, dated 2009).

Tested on: human mammary cancer-derived KPL-4 cells
Assay: Cell growth inhibition test with KPL-4 cells (WST-1)
Type: cell-based
Settings: KPL4, 72 hours, read-out: 50% growth inhibition concentration (GI50)
Protocol: In a 96-well plate (Nunc), human mammary cancer-derived KPL-4 cells were sown in an amount of 2000 cells/well, and pre-incubated in 10% fetal calf serum (FCS)-containing Dulbecco Modified Eagle Medium (DMEM) (incubation medium) in a 5% carbon dioxide incubator at 37° C. for 24 hours. A dimethylsulfoxide (DMSO) solution of a test compound controlled at 10 mmol/L was stepwise diluted with the incubation medium, and added to each well in a total amount of 100 μL/well, and incubated in the 5% carbon dioxide incubator at 37° C. for 72 hours. After the incubation, WST-1 {4-[3-(4-Iodophenyl)-2-(4-nitrophenyl)-2H-5-tetrazolio]-1,3-benzene disulfonate}-labeled mixture (Rosh Diagnostic) diluted 2-fold with the incubation medium was added thereto in an amount of 20 μL/well, and incubated in the 5% carbon dioxide incubator at 37° C. for 1 hour. Using a microplate spectrophotometer (Biorad's Model 550), the absorbance at 450 nm and 655 nm of each well was measured. The cell growth inhibition activity of the test compound was indicated by the 50% growth inhibition concentration (GI50) thereof. A method of calculating GI50 is described. The absorbance at 655 nm of each well was subtracted from the absorbance at 450 nm thereof to give a value (absorbance difference). The absorbance difference obtained with the cells without being treated with the test compound was taken as 100%, and this was compared with the absorbance difference obtained with the cells treated with the test compound to give the concentration of the compound for 50% cell growth inhibition, and this is referred to as GI50.

Row | SMILES | GI50 [µM]
1 | COC(=O)Cc1cc(O)cc(O)c1-c1cccc(OC)c1 [Compound 81, Methyl 3,5-dihydroxy-2-(3-methoxyphenyl)phenylacetate] | ≤ 50
2 | COC(=O)Cc1cc(O)cc(O)c1-c1ccc(OC)cc1 [Compound 82, Methyl 3,5-dihydroxy-2-(4-methoxyphenyl)phenylacetate] | ≤ 50
3 | Oc1cc(O)c(-c2ccccc2)c(COCC2CCCO2)c1Br (stereo not drawn) [Compound 85, 6-Bromo-5-[(oxolan-2-ylmethoxy)methyl]-4-phenylbenzene-1,3-diol] | ≤ 50
4 | COC(=O)CCc1c(Br)c(O)cc(O)c1-c1ccccc1 [Compound 87, Methyl 3-(2-bromo-3,5-dihydroxy-6-phenylphenyl)propanoate] | ≤ 50
5 | COc1ccccc1N1CCN(C(=O)Cc2c(Br)c(O)cc(O)c2-c2ccccc2)CC1 [Compound 88, 2-(2-Bromo-3,5-dihydroxy-6-phenylphenyl)-1-[4-(2-methoxyphenyl)piperazin-1-yl]ethanone] | ≤ 50
6 | CN(CCc1ccccn1)C(=O)Cc1c(Br)c(O)cc(O)c1-c1ccccc1 [Compound 89, 2-(2-Bromo-3,5-dihydroxy-6-phenylphenyl)-N-methyl-N-[2-(pyridin-2-yl)ethyl]acetamide] | ≤ 50
7 | N#Cc1cccnc1N1CCN(C(=O)Cc2c(Br)c(O)cc(O)c2-c2ccccc2)CC1 [Compound 90, 2-(2-Bromo-3,5-dihydroxy-6-phenylphenyl)-1-[4-(3-cyanopyridin-2-yl)piperazin-1-yl]ethanone] | ≤ 50
8 | O=C(Cc1c(Br)c(O)cc(O)c1-c1ccccc1)N1CCN(C(=O)c2ccco2)CC1 [Compound 91, 2-(2-Bromo-3,5-dihydroxy-6-phenylphenyl)-1-[4-(2-furoyl)piperazin-1-yl]ethanone] | ≤ 50
9 | COCCc1c(CC(C)=O)c(O)cc(O)c1-c1ccccc1 [Compound 94, 1-[2,4-Dihydroxy-6-(2-methoxyethyl)-5-phenylphenyl]propanone] | ≤ 50
10 | CCCc1c(O)cc(O)c(-c2ccccc2)c1CCOC [Compound 95, 5-(2-Methoxyethyl)-4-phenyl-6-propylbenzene-1,3-diol] | ≤ 50
11 | COCCc1c(CC(C)C)c(O)cc(O)c1-c1ccccc1 [Compound 96, 6-Isobutyl-5-(2-methoxyethyl)-4-phenylbenzene-1,3-diol] | ≤ 50
12 | COCCCc1c(Br)c(O)cc(O)c1-c1ccccc1 [Compound 97, 6-Bromo-5-(3-methoxypropyl)-4-phenylbenzene-1,3-diol] | ≤ 50
13 | CNCCc1c(Br)c(O)cc(O)c1-c1ccccc1 [Compound 98, 6-Bromo-5-[2-(N-methylamino)ethyl]-4-phenylbenzene-1,3-diol] | ≤ 50
14 | CN(C)CCc1c(Br)c(O)cc(O)c1-c1ccccc1 [Compound 99, 6-Bromo-5-[2-(N,N-dimethylamino)ethyl]-4-phenylbenzene-1,3-diol] | ≤ 50
15 | COCCNCCc1c(Br)c(O)cc(O)c1-c1ccccc1 [Compound 100, 6-Bromo-5-{2-[N-(2-methoxyethyl)amino]ethyl}-4-phenylbenzene-1,3-diol] | ≤ 50
16 | COCCNCc1c(Br)c(O)cc(O)c1-c1ccccc1 [Compound 103, 6-Bromo-5-[N-(2-methoxyethyl)aminomethyl]-4-phenylbenzene-1,3-diol] | ≤ 50
17 | COCCc1c(Br)c(O)cc(O)c1-c1cccc(OC)c1 [Compound 105, 6-Bromo-5-(2-methoxyethyl)-4-(3-methoxyphenyl)benzene-1,3-diol] | ≤ 50
18 | COc1cccc(-c2c(O)cc(O)c(Br)c2CC(C)=NO)c1 [Compound 107, 6-Bromo-5-[2-(hydroxyimino)propyl]-4-(3-methoxyphenyl)benzene-1,3-diol] | ≤ 50
19 | Oc1cc(O)c(-c2ccccc2)c(CCOCC2CCCO2)c1Br (stereo not drawn) [Compound 109, 6-Bromo-5-[2-(oxolan-2-ylmethoxy)ethyl]-4-phenylbenzene-1,3-diol] | ≤ 50
20 | OCCOCCc1c(Br)c(O)cc(O)c1-c1ccccc1 [Compound 110, 6-Bromo-5-[2-(2-hydroxyethoxy)ethyl]-4-phenylbenzene-1,3-diol] | ≤ 50
21 | COCOCCc1c(Br)c(O)cc(O)c1-c1ccccc1 [Compound 111, 6-Bromo-5-[2-(methoxymethoxy)ethyl]-4-phenylbenzene-1,3-diol] | ≤ 50
22 | Oc1cc(O)c(-c2ccccc2)c(C2OCCO2)c1Br [Compound 112, 6-Bromo-5-(1,3-dioxolan-2-yl)-4-phenylbenzene-1,3-diol] | ≤ 50
23 | CC(=O)CCc1c(Br)c(O)cc(O)c1-c1ccccc1 [Compound 114, 4-(2-Bromo-3,5-dihydroxy-6-phenylphenyl)butan-2-one] | ≤ 50

Row | SMILES | GI50 [µM]
24 | CC(O)CCc1c(Br)c(O)cc(O)c1-c1ccccc1 (stereo not drawn) [Compound 115, 5-(3-Hydroxybutyl)-6-bromo-4-phenylbenzene-1,3-diol] | ≤ 50
25 | COCCc1c(Br)c(O)cc(O)c1-c1cccc(C(N)=O)c1 [Compound 117, 3-[5-Bromo-2,4-dihydroxy-6-(2-methoxyethyl)phenyl]benzamide] | ≤ 50
26 | COCCc1c(C(C)=O)c(O)cc(O)c1-c1cccc(C(=O)OC)c1 [Compound 119, Methyl 3-[5-acetyl-2,4-dihydroxy-6-(2-methoxyethyl)phenyl]benzoate] | ≤ 50
27 | COCCc1c(C(C)=O)c(O)cc(O)c1-c1cccc(-c2ccccc2)c1 [Compound 120, 1-[2,4-Dihydroxy-6-(2-methoxyethyl)-5-(3-phenylphenyl)phenyl]ethanone] | ≤ 50
28 | CCOc1cccc(-c2c(O)cc(O)c(C(C)=O)c2CCOC)c1 [Compound 121, 1-[2,4-Dihydroxy-5-(3-ethoxyphenyl)-6-(2-methoxyethyl)phenyl]ethanone] | ≤ 50
29 | CC(=O)c1c(O)cc(O)c(-c2ccccc2)c1CCCO [Compound 124, 1-[2,4-Dihydroxy-6-(3-hydroxypropyl)-5-phenylphenyl]ethanone] | ≤ 50
30 | COCCc1c(C(=O)C(F)(F)F)c(O)cc(O)c1-c1ccccc1 [Compound 125, 1-[2,4-Dihydroxy-6-(2-methoxyethyl)-5-phenylphenyl]-2,2,2-trifluoroethanone] | ≤ 50
31 | CCc1c(OC)cc(O)c(-c2ccccc2)c1CC(=O)OC [Compound 126, Methyl 6-ethyl-3-hydroxy-5-methoxy-2-phenylphenylacetate] | ≤ 50
32 | COCCc1c(C(=O)OC)c(O)cc(O)c1-c1ccccc1 [Compound 128, Methyl 2,4-dihydroxy-6-(2-methoxyethyl)-5-phenylbenzoate] | ≤ 50
33 | COCCc1c(OC)c(O)cc(O)c1-c1ccccc1 [Compound 129, 6-Methoxy-5-(2-methoxyethyl)-4-phenylbenzene-1,3-diol] | ≤ 50
34 | CCc1c(O)cc(O)c(-c2cccc(C(=O)OC)c2)c1CCOC [Compound 131, Methyl 3-[5-ethyl-2,4-dihydroxy-6-(2-methoxyethyl)phenyl]benzoate] | ≤ 50
35 | CCc1c(O)cc(O)c(-c2cccc(-c3ccccc3)c2)c1CCOC [Compound 132, 6-Ethyl-5-(2-methoxyethyl)-4-(3-phenylphenyl)benzene-1,3-diol] | ≤ 50
36 | CCOc1cccc(-c2c(O)cc(O)c(CC)c2CCOC)c1 [Compound 133, 4-(3-Ethoxyphenyl)-6-ethyl-5-(2-methoxyethyl)benzene-1,3-diol] | ≤ 50
37 | COCCc1c(C(C)=O)c(O)cc(O)c1-c1cccc(OCc2ccccc2)c1 [Compound 135, 1-[2,4-Dihydroxy-5-(3-benzyloxyphenyl)-6-(2-methoxyethyl)phenyl]ethanone] | ≤ 50
38 | COCCN(C)C(=O)Cc1c(C(C)=O)c(O)cc(O)c1-c1cccc(OC)c1 [Compound 141, 2-[2-Acetyl-3,5-dihydroxy-6-(3-methoxyphenyl)phenyl]-N-(2-methoxyethyl)-N-methylacetamide] | ≤ 50
39 | CCc1c(O)cc(O)c(-c2cccc(OC)c2)c1CC(=O)OC [Compound 142, Methyl 2-ethyl-3,5-dihydroxy-6-(3-methoxyphenyl)phenylacetate] | ≤ 50
40 | C=CCOCCc1c(CC)c(O)cc(O)c1-c1ccccc1 [Compound 144, 5-(2-Allyloxyethyl)-6-ethyl-4-phenylbenzene-1,3-diol] | ≤ 50
41 | CCc1c(O)cc(O)c(-c2cccc(OC)c2)c1CC(=O)N(C)CCOC [Compound 150, 2-[2-Ethyl-3,5-dihydroxy-6-(3-methoxyphenyl)phenyl]-N-(2-methoxyethyl)-N-methylacetamide] | ≤ 50
42 | COCCc1c(-c2ccccc2)c(O)cc(O)c1C(C)C [Compound 151, 6-Isopropyl-5-(2-methoxyethyl)-4-phenylbenzene-1,3-diol] | ≤ 50
43 | COCCOCCc1cc(OS(N)(=O)=O)cc(O)c1-c1ccccc1 [Compound 152, 3-(2-Methoxyethoxy)ethyl-2-phenyl-5-(sulfamoyloxy)phenol] | ≤ 50
44 | CCc1c(O)cc(O)c(-c2cccc(CCC(C)=O)c2)c1CCOCCOC [Compound 153, 4-(3-{5-Ethyl-2,4-dihydroxy-6-[2-(2-methoxyethoxy)ethyl]phenyl}phenyl)butan-2-one] | ≤ 50
45 | CCc1c(O)cc(O)c(-c2cccc(CCC(C)O)c2)c1CCOCCOC (stereo not drawn) [Compound 154, 6-Ethyl-4-[3-(3-hydroxybutyl)phenyl]-5-[2-(2-methoxyethoxy)ethyl]benzene-1,3-diol] | ≤ 50
